Data from patent publication US12350269B2 (Alexion Pharmaceuticals, Inc., priority 2015, dated 2025).

What was measured:
Experiment in all cases: DLBCL cell line viability, CellTiter Glo
Type in all cases: cell-based
Details in all cases: read-out: IC50 of Kinase Inhibitor in CellTiter Glo Assay
[1] = test system: DHL10
Description: (§1) Each IC50 value is an average of at least four replicate experiments. Subsequent analysis using a FACS based caspase 3 cleavage detection kit (BD Biosciences) and Edu incorporation were performed.

[2] = test system: TOLEDO
Description: as §1

[3] = test system: LY10
Description: as §1

[4] = test system: DHL8
Description: as §1

[5] = test system: DLCL2
Description: as §1

[6] = test system: DB
Description: as §1

[7] = test system: VAL
Description: as §1

[8] = test system: LY18
Description: as §1

[9] = test system: LY1
Description: as §1

[10] = test system: DHL6
Description: as §1

[11] = test system: LY7
Description: as §1

[12] = test system: U2932
Description: as §1

[13] = test system: RCK8
Description: as §1

[14] = test system: DHL5
Description: as §1

SMILES: CC(C)(C)c1nc2c3cc[nH]c(=O)c3c3cc(F)ccc3c2[nH]1 [Pan-Jak]
- IC50 [1]: 40 µM
- IC50 [2]: 5.9 µM
- IC50 [3]: 5.1 µM
- IC50 [4]: 28 µM
- IC50 [5]: 42 µM
- IC50 [6]: 21.4 µM
- IC50 [7]: 5.2 µM
- IC50 [8]: 0.8 µM
- IC50 [9]: 0.7 µM
- IC50 [10]: 2.63 µM
- IC50 [11]: 34 µM
- IC50 [12]: 3.9 µM
- IC50 [13]: 43 µM
- IC50 [14]: 39 µM
